Measurements: ChEMBL document CHEMBL1201862, “PubChem BioAssay data set” (2004)
Activity calls are given as the source filed them.

Legend:
[1] = Luminescence Cell-Based Dose Response HTS to Identify Activators of Luciferase Translation or Activity in H4 […] Cells. [Related pubchem assays: 1829 (Project Summary), 1814 (Primary HTS)]; format: functional
[2] = Luminescence Cell-Based Dose Response to Identify Activators of 5'UTR Stem-Loop Driven Prion Protein mRNA Translation in H4-C Neuroglioblastoma Cells. [Related pubchem assays: 1829 (Project Summary), 1814 (Primary HTS)]; format: functional
[3] = Luminescence Cell-Based Dose Confirmation to Identify Activators of 5'UTR Stem-Loop Driven Alpha-Synuclein mRNA Translation in H4 Neuroglioblastoma Cells. [Related pubchem assays: 1829 (Project Summary), 1814 (Primary HTS)]; format: functional
[4] = molecular target: T1, Oxysterols receptor LXR-beta (Homo sapiens, UniProt P55055); format: functional, cell-based;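 also: agonist activity at LXR measured by a cell-based luminescence readout across a dose range, run as a counterscreen for daf-12 agonists; HEK293 cells with Gal4-LXR fusion and GAL4-driven luciferase reporter; potency for activation of Gal4-LXR reporter so compounds are agonists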
T1 sequence (P55055 whole entry): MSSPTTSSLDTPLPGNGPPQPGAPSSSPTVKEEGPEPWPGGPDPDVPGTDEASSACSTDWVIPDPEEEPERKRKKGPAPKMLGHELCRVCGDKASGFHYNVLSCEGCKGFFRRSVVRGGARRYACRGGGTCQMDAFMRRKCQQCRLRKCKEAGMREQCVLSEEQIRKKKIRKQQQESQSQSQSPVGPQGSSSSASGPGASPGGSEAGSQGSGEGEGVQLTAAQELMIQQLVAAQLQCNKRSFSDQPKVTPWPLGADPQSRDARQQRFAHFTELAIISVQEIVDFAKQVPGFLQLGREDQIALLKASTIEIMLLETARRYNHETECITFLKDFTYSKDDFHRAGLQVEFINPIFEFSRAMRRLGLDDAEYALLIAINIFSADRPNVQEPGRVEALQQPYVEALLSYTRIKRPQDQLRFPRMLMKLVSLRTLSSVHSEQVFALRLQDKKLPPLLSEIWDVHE

H4 = test: Luminescence Cell-Based Dose Response HTS to Identify Activators of 5'UTR Stem-Loop Driven Prion Protein mRNA Translation in H4 Neuroglioblastoma Cells. [Related pubchem assays: 1829 (Project Summary), 1814 (Primary HTS)]; format: functional; conditions: Homo sapiens
[5] = Luminescence Cell-Based Dose Response to Identify Activators of Luciferase Translation or Activity in H4-C Neuroglioblastoma Cells. [Related pubchem assays: 1829 (Project Summary), 1814 (Primary HTS)]; format: functional
Vero [6] = test: cells; format: functional; conditions: Chlorocebus sabaeus
Vero [7] = test: cells; format: functional, cell-based; conditions: Chlorocebus sabaeus
Vero [8] = test: inhibition of WNV-induced cytopathic effect – cell-based, CPE readout (AID 1621); format: functional; conditions: Chlorocebus sabaeus
[9] = viability of uninfected HEp-2 cells – cell-based, HTS, cytotoxicity control for RSV inhibitor project, dose response (AID 2410); format: functional; conditions: human respiratory syncytial virus
[10] = molecular target: T2, Voltage-gated inwardly rectifying potassium channel KCNH2 (Homo sapiens, UniProt Q12809); test: concentration-dependent hERG rescue from blockers – cell-based, thallium flux, dose response (AID 2121); format: ADME
[11] = molecular target: T3, Heat shock factor protein 1 (Mus musculus, UniProt P38532); test: decrease of HSF1-responsive luciferase luminescence – cell-based, NIH3T3, dose retest, confirmation (AID 2382); format: functional;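 also: NIH3T3 fibroblasts with HSF1-driven luciferase reporter stressed by proteasome inhibitor MG132; luminescence from HSF1-driven luciferase expression after 8 hours of MG132 stress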
T3 sequence (P38532 whole entry): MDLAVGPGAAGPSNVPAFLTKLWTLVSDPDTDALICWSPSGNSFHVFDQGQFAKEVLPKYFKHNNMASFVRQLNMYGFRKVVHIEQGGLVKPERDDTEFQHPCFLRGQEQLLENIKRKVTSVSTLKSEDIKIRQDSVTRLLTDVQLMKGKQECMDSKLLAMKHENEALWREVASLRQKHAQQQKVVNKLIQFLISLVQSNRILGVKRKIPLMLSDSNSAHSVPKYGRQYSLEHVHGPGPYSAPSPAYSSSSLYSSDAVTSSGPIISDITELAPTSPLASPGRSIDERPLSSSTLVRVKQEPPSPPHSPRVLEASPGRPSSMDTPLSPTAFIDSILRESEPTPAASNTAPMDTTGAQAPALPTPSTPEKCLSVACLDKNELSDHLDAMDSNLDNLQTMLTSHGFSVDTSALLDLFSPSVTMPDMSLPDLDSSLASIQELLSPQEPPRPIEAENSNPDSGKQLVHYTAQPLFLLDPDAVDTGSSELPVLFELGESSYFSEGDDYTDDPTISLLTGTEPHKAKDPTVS

[12] = molecular target: Potassium voltage-gated channel subfamily KQT member 2 (Rattus norvegicus, UniProt O88943, W236L); test: potentiation of rat KCNQ2 current – cell-based, automated electrophysiology, mechanism study for KCNQ2 potentiator project, dose response (AID 2603); format: functional
Ephrin type-A receptor 4 = Ephrin type-A receptor 4 (Mus musculus, UniProt Q03137); test: EphA4 ligand-binding antagonists – biochemical, colorimetric, mouse EphA4, primary screen (AID 689); format: functional
[13] = molecular target: Neuropeptide Y receptor type 1 (Homo sapiens, UniProt P25929); format: functional;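 also: HEK293 cells with a CNG channel challenged with NPY then isoproterenol; potency as antagonist that reverses NPY suppression of cAMP signal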
[14] = molecular target: Neuropeptide Y receptor type 2 (Homo sapiens, UniProt P49146); format: functional, cell-based;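 also: HEK293 cells expressing the receptor and a CNG channel; stimulus was NPY near EC95 followed by isoproterenol to raise cAMP; antagonist potency measured as restoring cAMP signal that NPY suppresses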
Large T antigen = Large T antigen (Simian virus 40, UniProt P03070); format: functional, Betapolyomavirus macacae;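 also: Confirmatory-stage PubChem screen for compounds that inhibit SV40 T antigen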
[15] = molecular target: T2, Voltage-gated inwardly rectifying potassium channel KCNH2; conditions: Potency
[16] = Luminescent dose response cell-based high throughput screening assay for inhibitors of the Janus kinase 2 mutant JAK2V617F. [Related pubchem assays: 1446 (Primary screen.), 1521 (Confirmation assay.), 1486 (Counter screen.)]; format: functional
Ion channel NompC [17] = molecular target: T4, Ion channel NompC (Danio rerio, UniProt Q7T1G6); test: Late stage counterscreen for the probe development effort to identify selective agonists of the Transient Receptor Potential Channels 3 (TRPML3): fluorescence-based cell-based dose response assay for TRPN1 agonists.; format: functional
Mucolipin-3 [18] = molecular target: T5, Mucolipin-3 (Homo sapiens, UniProt Q8TDD5); test: Dose response cell-based high-throughput screening assay for agonists of the transient receptor potential channel ML3 (TRPML3). [Related pubchem assays: 1526, 1424, 1448 ]; format: functional
T5 sequence (Q8TDD5 whole entry): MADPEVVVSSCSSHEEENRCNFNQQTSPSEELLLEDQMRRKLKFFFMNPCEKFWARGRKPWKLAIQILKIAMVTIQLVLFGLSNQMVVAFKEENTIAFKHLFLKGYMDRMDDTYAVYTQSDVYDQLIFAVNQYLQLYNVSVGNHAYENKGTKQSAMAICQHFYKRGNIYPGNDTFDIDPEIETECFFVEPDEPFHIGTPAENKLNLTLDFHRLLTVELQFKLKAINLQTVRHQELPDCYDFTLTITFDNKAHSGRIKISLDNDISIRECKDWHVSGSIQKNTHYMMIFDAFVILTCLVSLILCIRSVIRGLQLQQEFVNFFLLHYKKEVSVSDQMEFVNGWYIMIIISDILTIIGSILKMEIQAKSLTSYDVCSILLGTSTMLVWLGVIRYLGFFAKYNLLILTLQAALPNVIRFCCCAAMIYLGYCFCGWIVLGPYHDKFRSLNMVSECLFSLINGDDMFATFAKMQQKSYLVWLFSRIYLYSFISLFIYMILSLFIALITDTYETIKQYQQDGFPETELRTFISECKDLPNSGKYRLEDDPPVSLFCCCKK

Mucolipin-3 [19] = molecular target: T5, Mucolipin-3; test: human mucolipin-3 activators, concentration-response – cell-based, calcium fluorescence, dose response (AID 2510); format: functional
Ion channel NompC [20] = molecular target: T4, Ion channel NompC; test: Fluorescence counterscreen assay for TRPML3 agonists: dose response cell-based high-throughput screening assay to identify agonists of the transient receptor potential channel N1 (TRPN1). [Related pubchem assays: 1526, 1424, 1448 ]; format: functional
[21] = molecular target: T6, Microphthalmia-associated transcription factor (Homo sapiens, UniProt O75030); test: reducers of TRPM1 reporter luminescence, concentration series – cell-based, SK-MEL-5, cherry-picked, set 3, MITF inhibitor project, dose response (AID 493073); format: functional;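 also: SK-MEL-5 melanoma cells with luciferase driven by the MITF target TRPM1 promoter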
T6 sequence (O75030 whole entry): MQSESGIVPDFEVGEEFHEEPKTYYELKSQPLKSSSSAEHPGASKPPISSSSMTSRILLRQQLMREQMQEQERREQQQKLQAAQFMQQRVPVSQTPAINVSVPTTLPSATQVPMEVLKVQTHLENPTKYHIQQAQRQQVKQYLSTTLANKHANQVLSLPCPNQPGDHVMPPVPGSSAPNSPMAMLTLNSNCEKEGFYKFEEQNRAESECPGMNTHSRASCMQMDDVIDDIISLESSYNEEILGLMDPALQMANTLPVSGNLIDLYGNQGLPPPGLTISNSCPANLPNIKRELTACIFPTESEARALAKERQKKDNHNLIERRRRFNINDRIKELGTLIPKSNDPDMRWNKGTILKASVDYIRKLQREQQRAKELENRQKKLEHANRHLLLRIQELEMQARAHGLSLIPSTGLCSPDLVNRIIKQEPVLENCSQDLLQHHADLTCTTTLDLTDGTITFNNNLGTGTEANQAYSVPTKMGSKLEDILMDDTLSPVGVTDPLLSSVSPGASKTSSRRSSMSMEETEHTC

[22] = blockers of bursicon-stimulated LGR2 cAMP reporter – cell-based, HEK293, CRE-luciferase reporter, cherry pick, set 2, dose response (AID 743343); format: functional;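 also: transfected cells were stimulated with diluted bursicon conditioned medium after compound addition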
Paired box protein Pax-8 = Paired box protein Pax-8 (Homo sapiens, UniProt Q06710); test: PAX8 transcriptional activity inhibition in RMG-I – RMG-I cells, luciferase, cherry-pick, dose response (AID 687027); format: functional, cell-based;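 also: luciferase reporter driven by Pax8 target thyroperoxidase promoter measured by SteadyGlo luminescence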
[23] = molecular target: Sphingosine 1-phosphate receptor 1 (Homo sapiens, UniProt P21453); format: functional;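 also: Tango beta-arrestin reporter U2OS cells stimulated with S1P near its EC80; inhibitor potency meaning antagonism of receptor activation by the natural agonist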
[24] = blockade of melanocortin 4 receptor signaling – cell-based, plate reader, cherry pick, counter-screen for LGR2 antagonist project, dose response (AID 743444); format: functional;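 also: transfected HEK 293 cells stimulated with alpha-MSH peptide; potency of inhibitors of the alpha-MSH evoked signal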
[25] = toxicity toward HepG2 liver cells – cell-based, plate reader, cherry-pick, antagonist series, cytotoxicity control, dose response (AID 743416); format: functional
[26] = viability loss in HEK293 cells – cell-based, plate reader, cherry-picked samples, cytotoxicity control, dose response (AID 743446); format: functional
[27] = general cell-killing toxicity readout – plate reader, dry powder samples, cytotoxicity control for PAX8 inhibitor project, dose response (AID 743021); format: functional, cell-based
A-375 = test: proliferation inhibition in MITF-low A375 cells – cell-based, cherry-pick samples, set 2, counter-screen for MITF modulator project, dose response (AID 540335); format: functional; conditions: Homo sapiens
[28] = A549 cell cytotoxicity, dose response, cytotoxicity control, plate reader, cherry-pick, antagonist series (AID 743412); format: functional, cell-based
[29] = Fluorescence-based cell-based high throughput dose response assay for inhibitors of the interaction of nucleotide-binding oligomerization domain containing 2 (NOD2) and the receptor-interacting serine-threonine kinase 2 (RIPK2).; format: functional, Homo sapiens; conditions: Homo sapiens
[30] = molecular target: T7, Sphingosine 1-phosphate receptor 4 (Homo sapiens, UniProt O95977); test: Fluorescence dose response cell-based high throughput screening assay for antagonists of the Sphingosine 1-Phosphate Receptor 4 (S1P4). [Related pubchem assays: 1524 (Confirmation in triplicates.), 1510 (Primary screen.)]; format: functional
T7 sequence (O95977 whole entry): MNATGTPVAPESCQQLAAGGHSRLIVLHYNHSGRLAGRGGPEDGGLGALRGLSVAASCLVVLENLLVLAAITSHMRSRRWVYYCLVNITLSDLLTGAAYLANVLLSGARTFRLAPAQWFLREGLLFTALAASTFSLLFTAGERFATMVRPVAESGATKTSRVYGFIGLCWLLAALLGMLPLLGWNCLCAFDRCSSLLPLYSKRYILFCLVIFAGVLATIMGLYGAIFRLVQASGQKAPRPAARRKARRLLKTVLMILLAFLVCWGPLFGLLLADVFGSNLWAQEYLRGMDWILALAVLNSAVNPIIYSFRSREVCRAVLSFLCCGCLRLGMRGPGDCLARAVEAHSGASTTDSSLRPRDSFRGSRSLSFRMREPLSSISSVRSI

T2 sequence (Q12809 whole entry): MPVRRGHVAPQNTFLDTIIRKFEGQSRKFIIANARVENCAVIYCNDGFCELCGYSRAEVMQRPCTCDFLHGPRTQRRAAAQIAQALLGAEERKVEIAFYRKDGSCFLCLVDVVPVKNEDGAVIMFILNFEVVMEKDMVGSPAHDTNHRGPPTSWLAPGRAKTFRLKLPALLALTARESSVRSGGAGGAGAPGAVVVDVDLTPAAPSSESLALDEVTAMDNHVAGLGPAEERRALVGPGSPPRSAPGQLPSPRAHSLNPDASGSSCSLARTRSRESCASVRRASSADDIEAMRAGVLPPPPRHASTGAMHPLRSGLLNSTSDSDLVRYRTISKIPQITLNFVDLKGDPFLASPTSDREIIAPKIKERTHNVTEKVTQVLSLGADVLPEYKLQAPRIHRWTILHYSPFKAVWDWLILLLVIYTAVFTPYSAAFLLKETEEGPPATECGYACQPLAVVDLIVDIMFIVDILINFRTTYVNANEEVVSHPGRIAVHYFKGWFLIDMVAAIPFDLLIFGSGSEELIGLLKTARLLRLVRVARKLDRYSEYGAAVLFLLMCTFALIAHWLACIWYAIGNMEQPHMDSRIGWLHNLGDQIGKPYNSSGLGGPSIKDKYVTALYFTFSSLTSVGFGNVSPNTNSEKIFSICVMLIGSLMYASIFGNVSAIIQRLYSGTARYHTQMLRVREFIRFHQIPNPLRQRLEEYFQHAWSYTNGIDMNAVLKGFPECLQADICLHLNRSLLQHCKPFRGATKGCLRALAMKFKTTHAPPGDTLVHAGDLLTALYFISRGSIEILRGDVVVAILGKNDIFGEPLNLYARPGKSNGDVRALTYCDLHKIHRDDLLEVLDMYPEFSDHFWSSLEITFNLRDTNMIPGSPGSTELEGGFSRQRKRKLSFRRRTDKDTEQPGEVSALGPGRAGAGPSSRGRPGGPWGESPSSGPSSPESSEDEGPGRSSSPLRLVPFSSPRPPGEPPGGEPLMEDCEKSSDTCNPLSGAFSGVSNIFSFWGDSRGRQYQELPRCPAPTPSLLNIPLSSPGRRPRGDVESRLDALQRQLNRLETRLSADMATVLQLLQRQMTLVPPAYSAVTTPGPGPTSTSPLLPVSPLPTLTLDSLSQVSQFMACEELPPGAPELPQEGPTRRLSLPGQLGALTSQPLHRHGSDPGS
T4 sequence (Q7T1G6 whole entry): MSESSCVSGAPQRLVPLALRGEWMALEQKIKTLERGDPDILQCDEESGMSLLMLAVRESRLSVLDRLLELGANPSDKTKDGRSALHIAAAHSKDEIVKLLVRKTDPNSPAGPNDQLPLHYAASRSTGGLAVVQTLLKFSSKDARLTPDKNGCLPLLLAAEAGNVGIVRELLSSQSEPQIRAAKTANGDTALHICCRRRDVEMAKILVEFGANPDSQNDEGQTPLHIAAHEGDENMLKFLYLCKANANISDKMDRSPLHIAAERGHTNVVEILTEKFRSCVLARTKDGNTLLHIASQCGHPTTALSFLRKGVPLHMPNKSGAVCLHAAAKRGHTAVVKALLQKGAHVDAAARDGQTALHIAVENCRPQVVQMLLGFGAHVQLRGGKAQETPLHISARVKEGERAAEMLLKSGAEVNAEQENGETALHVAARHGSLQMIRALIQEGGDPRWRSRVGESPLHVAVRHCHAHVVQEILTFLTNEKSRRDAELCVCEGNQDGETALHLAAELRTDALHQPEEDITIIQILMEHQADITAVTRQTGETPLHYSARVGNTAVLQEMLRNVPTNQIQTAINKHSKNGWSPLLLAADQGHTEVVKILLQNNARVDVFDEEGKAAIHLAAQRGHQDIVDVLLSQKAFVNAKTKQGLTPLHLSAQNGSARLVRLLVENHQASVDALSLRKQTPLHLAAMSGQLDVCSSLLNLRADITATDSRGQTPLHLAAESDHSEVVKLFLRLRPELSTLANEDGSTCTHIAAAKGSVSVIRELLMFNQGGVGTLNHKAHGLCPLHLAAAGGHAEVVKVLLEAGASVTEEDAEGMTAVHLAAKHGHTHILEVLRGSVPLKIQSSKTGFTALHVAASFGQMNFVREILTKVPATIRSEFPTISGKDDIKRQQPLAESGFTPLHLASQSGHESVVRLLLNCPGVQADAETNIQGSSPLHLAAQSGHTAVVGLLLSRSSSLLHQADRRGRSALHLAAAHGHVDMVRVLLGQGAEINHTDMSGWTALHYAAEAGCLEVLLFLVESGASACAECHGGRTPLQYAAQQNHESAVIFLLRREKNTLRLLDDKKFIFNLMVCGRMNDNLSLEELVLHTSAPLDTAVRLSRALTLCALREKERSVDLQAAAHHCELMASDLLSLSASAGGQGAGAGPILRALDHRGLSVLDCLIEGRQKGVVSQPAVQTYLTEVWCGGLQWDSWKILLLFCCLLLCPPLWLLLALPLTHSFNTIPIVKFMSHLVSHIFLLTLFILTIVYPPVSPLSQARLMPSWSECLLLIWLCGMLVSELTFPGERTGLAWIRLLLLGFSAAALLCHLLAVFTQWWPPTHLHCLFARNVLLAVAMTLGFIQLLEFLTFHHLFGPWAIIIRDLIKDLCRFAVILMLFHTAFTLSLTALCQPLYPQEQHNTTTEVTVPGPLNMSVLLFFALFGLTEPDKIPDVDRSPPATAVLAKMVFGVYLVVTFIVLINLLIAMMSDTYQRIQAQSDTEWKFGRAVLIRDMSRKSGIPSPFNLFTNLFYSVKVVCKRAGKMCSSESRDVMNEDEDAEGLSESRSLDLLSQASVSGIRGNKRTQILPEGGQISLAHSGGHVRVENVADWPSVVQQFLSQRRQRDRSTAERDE
Chain of Large T antigen (P03070 whole entry): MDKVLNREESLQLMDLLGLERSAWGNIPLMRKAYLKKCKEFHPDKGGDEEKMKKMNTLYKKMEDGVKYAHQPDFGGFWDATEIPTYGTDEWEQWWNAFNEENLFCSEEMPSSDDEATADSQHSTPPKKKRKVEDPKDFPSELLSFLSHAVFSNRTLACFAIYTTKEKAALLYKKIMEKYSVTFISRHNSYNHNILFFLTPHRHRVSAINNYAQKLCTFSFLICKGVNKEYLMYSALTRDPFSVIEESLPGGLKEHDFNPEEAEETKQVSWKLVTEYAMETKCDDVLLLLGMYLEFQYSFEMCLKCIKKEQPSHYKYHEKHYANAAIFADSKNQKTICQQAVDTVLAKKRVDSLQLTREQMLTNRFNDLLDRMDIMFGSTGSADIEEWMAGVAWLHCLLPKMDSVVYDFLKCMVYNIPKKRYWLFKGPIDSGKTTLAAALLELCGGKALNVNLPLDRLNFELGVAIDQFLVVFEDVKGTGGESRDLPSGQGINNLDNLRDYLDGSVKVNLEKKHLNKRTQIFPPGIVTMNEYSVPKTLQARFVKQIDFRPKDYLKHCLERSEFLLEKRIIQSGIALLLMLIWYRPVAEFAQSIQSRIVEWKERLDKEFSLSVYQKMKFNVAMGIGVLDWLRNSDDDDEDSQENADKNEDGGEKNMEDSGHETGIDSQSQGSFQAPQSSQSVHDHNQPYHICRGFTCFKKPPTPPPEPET
Chain of Neuropeptide Y receptor type 2 (P49146 whole entry): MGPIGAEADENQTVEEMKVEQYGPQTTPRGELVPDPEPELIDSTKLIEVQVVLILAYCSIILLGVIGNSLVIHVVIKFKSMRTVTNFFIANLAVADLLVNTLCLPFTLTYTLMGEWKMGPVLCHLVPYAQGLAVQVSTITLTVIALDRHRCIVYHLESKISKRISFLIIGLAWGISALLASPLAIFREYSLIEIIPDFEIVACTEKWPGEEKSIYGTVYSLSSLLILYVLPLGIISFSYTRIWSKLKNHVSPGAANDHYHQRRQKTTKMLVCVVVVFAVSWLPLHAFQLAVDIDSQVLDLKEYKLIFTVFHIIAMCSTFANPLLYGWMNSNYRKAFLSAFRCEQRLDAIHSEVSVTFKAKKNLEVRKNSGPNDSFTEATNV
Chain of Ephrin type-A receptor 4 (Q03137 whole entry): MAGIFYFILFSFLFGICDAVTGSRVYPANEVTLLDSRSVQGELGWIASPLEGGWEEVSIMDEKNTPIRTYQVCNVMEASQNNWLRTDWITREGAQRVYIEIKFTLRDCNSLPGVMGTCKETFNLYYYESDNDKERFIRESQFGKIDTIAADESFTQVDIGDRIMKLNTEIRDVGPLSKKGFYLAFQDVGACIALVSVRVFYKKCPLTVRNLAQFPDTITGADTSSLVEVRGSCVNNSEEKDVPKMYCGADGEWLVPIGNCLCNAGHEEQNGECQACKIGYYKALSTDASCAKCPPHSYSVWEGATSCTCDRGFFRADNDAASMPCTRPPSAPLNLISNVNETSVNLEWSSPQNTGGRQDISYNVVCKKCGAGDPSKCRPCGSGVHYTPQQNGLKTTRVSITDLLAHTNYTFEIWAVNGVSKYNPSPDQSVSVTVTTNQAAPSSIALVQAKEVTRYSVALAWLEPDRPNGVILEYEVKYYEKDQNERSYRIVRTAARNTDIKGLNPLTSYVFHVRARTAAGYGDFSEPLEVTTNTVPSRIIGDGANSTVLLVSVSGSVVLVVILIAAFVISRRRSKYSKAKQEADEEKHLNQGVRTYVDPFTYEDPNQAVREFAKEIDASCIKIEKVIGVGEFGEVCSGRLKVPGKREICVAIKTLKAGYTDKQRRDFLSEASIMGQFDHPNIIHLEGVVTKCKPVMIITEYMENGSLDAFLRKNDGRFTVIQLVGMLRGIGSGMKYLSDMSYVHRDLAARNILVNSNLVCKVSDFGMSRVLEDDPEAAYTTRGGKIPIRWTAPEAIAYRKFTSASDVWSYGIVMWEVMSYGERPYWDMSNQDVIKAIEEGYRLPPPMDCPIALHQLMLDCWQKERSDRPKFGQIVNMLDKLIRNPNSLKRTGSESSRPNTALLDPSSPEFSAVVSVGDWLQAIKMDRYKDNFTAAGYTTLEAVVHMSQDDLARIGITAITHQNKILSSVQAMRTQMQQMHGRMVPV

SMILES: CCOC(=O)c1c[nH]nc1N=C(S)Nc1ccccc1
- EC50 [1]: < 100 nM (active)
- EC50 [2]: 352 nM (active)
- EC50 [3]: 380 nM (active)
- EC50 [4]: > 67.6 µM (inactive)
- EC50 (H4): > 120 µM (not active)
- EC50 [5]: 324 nM (active)

SMILES: Cc1c(NC(=O)COC(=O)c2cc(-c3ccc(-c4ccccc4)cc3)nc3ccccc23)c(=O)n(-c2ccccc2)n1C
- CC50 (Vero [6]): 11.5 µM (active)
- IC50 (Vero [7]): 2.09 µM (active)
- IC50 (Vero [8]): 21.1 µM (active)
- IC50 (cells): 530 nM (active)
- CC50 [9]: 2.93 µM (active)

SMILES: O=C(/C=C/c1ccccc1)CC(=O)c1ccccc1O
- EC50 [10]: 2.67 µM (active)

SMILES: Clc1ccc(Nc2ccc(Cl)nn2)cc1
- EC50 [11]: > 195 µM (not active)
- EC50 [12]: 7.86 µM (active)

SMILES: COC(=O)CSc1nc(-c2ccccc2)cc(-c2ccco2)c1C#N
- IC50 (Ephrin type-A receptor 4): > 100 µM (not active)

SMILES: Cc1ccc(NC(S)=NCc2ccc3c(c2)OCO3)cc1C
- IC50 [13]: 9.96 µM (active)
- IC50 [14]: 10 µM (not active)

SMILES: N#C/C(=C\c1ccc(O)c(O)c1)C(=O)NCCCc1ccccc1
- IC50 (Large T antigen): 21 µM (active)
- AC50 [15]: 15.8 µM (inconclusive)
- IC50 [16]: 1.7 µM (active)

SMILES: Cc1ccc(S(=O)(=O)n2nccc2-c2c(-c3ccc(Cl)cc3)noc2C)cc1
- EC50 (Ion channel NompC [17]): > 29.9 µM (not active)
- EC50 (Mucolipin-3 [18]): 325 nM (active)
- EC50 (Mucolipin-3 [19]): 253 nM (active)
- EC50 (Ion channel NompC [20]): > 29.9 µM (not active)

SMILES: O=c1c(Cl)c(Cl)cnn1-c1ccccc1
- AC50 [21]: 9.54 µM (active)
- AC50 [22]: 19 µM (active)
- AC50 (Paired box protein Pax-8): 6.1 µM (active)
- IC50 [23]: 8.71 µM (active)
- EC50 [11]: 5.45 µM (active)
- AC50 [24]: 16.3 µM (active)
- AC50 [25]: 14.4 µM (active)
- AC50 [26]: 4.49 µM (active)
- AC50 [27]: 25.8 µM (active)
- AC50 (A-375): 23.8 µM (active)
- AC50 [28]: 7.52 µM (active)
- IC50 [29]: 49.7 µM (inactive)
- IC50 [30]: 1.86 µM (active)
